Laboratory results published in ChEMBL document CHEMBL5120968, “Syzysamalactone, an Unusual 11-Carbon δ-Lactone Derivative from the Fresh Ripe Fruits of Syzygium samarangense (Wax Apple)” (J Nat Prod, 2022).

Tested on: SH-SY5Y
Experiment: Neuroprotective activity against 6-OHDA induced cell death in human SH-SY5Y cells preincubated with 6-hyrdoxydopamine followed by compound addition and measured after 24 hrs by MTT assay
Assay type: functional, cell-based

SMILES	EC50
CCCCCc1cccc(=O)o1	1280 nM
CC[C@H]1CCc2oc(=O)ccc2[C@H]1O	290 nM
COc1cc(/C=C/C(=O)CC(=O)/C=C/c2ccc(O)c(OC)c2)ccc1O [CURCUMIN]	5290 nM
